Consider three compounds from US20250188037A1, “N-(PYRROLIDIN-3-YL OR PIPERIDIN-4-YL)ACETAMIDE DERIVATIVES” (Takeda Pharmaceutical Company Limited, priority 2022, published 2025).

SMILES strings stand for the structures.

In one assay the target is SSTR1 (Homo sapiens (Human), UniProt P30872). Put plainly: biochemical.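 Further: binding assay on CHO-K1 cell membranes overexpressing SSTR1, incubated 60 min at room temperature, bound fraction collected on filters and read by scintillation counting.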
Chain of SSTR1 (P30872 whole entry): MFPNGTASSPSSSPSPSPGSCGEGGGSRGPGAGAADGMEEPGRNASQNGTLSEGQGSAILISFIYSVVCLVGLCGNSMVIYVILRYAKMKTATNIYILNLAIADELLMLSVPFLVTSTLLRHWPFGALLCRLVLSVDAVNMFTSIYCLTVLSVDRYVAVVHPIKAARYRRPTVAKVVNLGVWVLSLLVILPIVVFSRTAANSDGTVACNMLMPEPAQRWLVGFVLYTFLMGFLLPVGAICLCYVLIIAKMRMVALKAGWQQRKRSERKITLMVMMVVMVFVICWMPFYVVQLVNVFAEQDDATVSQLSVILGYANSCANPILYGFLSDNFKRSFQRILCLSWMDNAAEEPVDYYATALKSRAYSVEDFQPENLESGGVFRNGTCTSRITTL
In assay [1] the target is T1, SSTR4 (Homo sapiens (Human), UniProt P31391). Put plainly: Inhibition of forskolin stimulated cAMP in cells overexpressing SSTR4. The class given is cell-based. The note with it: inhibition of forskolin stimulated cAMP in CHO-K1 cells overexpressing SSTR4; read-out: SSTR4 Activity pEC50 (converted). The procedure:
Inhibition of Forskolin Stimulated cAMP in Cells Overexpressing SSTR4
This cell-based assay measures the ability of compounds to inhibit forskolin stimulated cAMP in CHO-K1 cells overexpressing SSTR4. CHO-K1 cells overexpressing SSTR4 (CHO-SSTR4) are purchased from DiscoveRx (product code 95-0059C2). The CHO-SSTR4 cells are maintained in F12K media with 10% Fetal Bovine Serum (Hyclone), 1% Pen/Strep (Life Technologies), and 800 μg/mL G418 (Life Technologies). […] The next day, the culture media is removed from the cells and the cells are washed (added then removed) with Krebs Ringer Buffer (ZenBio, KRB-1000 mL). […] The cells are incubated in 10 μL compound/stimulation buffer for 30 minutes at room temperature. Cellular cAMP levels are detected with a HTRF LANCE Ultra cAMP kit (Perkin Elmer, catalog number TRF0264).
The assay is performed in accordance with the manufacturer's instructions. […] of diluted Eu—W8044 labeled streptavidin (dilution: 1:50 in cAMP Detection Buffer) is added to each well. Then 5 μL of diluted biotin cAMP (dilution: 1:150 in cAMP Detection Buffer) is added to each well. The plates are covered and allowed to incubate for 60 minutes at room temperature on a shaker. […] The pEC50 values are generated using Activity Base for Screening Data Management.

In assay [2] the target is T1, SSTR4. Put plainly: SSTR4 I-125 somatostatin competition binding assay. The note with it: membranes from CHO-K1 cells overexpressing SSTR4, read-out: SSTR4 Binding pIC50 (converted). The source says:
The scintillator sheets are melted to filters using a heat block.

T1 sequence (P31391 whole entry): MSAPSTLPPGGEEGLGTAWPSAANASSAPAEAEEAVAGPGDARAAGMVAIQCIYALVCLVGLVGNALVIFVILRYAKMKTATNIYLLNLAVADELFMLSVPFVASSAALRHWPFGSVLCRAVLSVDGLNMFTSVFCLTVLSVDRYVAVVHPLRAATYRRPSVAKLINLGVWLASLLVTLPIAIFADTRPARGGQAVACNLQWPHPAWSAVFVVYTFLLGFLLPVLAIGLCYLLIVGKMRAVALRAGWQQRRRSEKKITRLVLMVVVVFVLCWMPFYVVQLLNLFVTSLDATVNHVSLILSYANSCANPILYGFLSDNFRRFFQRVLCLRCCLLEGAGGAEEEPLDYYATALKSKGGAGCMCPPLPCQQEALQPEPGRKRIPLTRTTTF
Method for SSTR1: Membranes from CHO-K1 cells overexpressing SSTR1 are purchased from Perkin Elmer (catalog number ES-520-M400UA). […] Then 10 μg of SSTR1 membranes in 50 μL assay buffer are added per well. The plate is incubated for 60 minutes at room temperature. […] The contents of the assay plate are transferred to filters with a TomTech harvester and washed 5 times with 20 mM HEPES, 100 mM NaCl. […] The scintillator sheets are melted to the filters using a heat block. The filters are then read in a MicroBeta scintillation counter. Binding Ki curves are generated using Activity Base for Screening Data Management and the results are reported as pIC50.

On to `Cc1cccc(CC2(C(=O)N[C@@H]3CN(C)C[C@H]3C(C)C)CC2)c1` (racemic) [Example 3, N-(trans-4-isopropyl-1-methylpyrrolidin-3-yl)-1-(3-methylbenzyl)cyclopropane-1-carboxamide], for which the results for the IC50 against SSTR1 and on SSTR4 [2] were 5370 nM and 91.2 nM, respectively. In addition, at SSTR4 [1], the EC50 is 12.6 nM.
In the same order, the values of `C[C@@H]1CN(C)CC[C@H]1NC(=O)C1(Cc2ccc(F)cc2)CC1` (racemic) [Example 10, N-(trans-1,3-dimethylpiperidin-4-yl)-1-(4-fluorobenzyl)cyclopropane-1-carboxamide] are 15500 nM, 513 nM and 70.8 nM.
For `Cc1ccccc1CC1(C(=O)N[C@@H]2CCN(C)C[C@H]2C)CC1` (racemic) [Example 12, N-(trans-1,3-dimethylpiperidin-4-yl)-1-(2-methylbenzyl)cyclopropane-1-carboxamide], the IC50 was 15800 nM against SSTR1 and 891 nM at SSTR4 [2]. The EC50 at SSTR4 [1] is 57.5 nM.
